Experimental findings from patent publication US20110178064A1, “SPIRO CONDENSED […] DERIVATIVES FOR USE AS ANTIBACTERIAL” (A[…]&D, priority 2007, published 2011) are described below.

The assay addresses Escherichia coli DNA gyrase A/B tetramer (Escherichia coli, UniProt P0AES4+P0AES6). Kind of assay: DNA gyrase supercoiling activity fluorescence polarisation assay. In kind it is biochemical. The procedure:
The supercoiling reactions may be quenched by the addition of 10 microliters/well of 40 nM oligodeoxynucleotide probe in 3× triplex-forming buffer consisting of 150 mM NaCl, and 150 mM sodium acetate at pH 3.5. The oligodeoxynucleotide probe may be 5′-BODIPY-FL-labeled […]. After 60 minutes, the fluorescence anisotropy of the BODIPY-FL may be measured in a Tecan Ultra plate reader, using 485 nm excitation and 535 nm emission filters equipped with polarizers. The IC50 may be determined by nonliner regression using two control reactions. The first contains no test compound but 0.8% DMSO (100% activity) while the second control reaction contains 5 uM Ciprofloxacin and 0.8% DMSO (0% activity).
On the technique in general: Polarisation of emitted light reports the rotation of a fluorescent probe.

Where only a bound is given, the exact number is not on record here.

Chain of Escherichia coli DNA gyrase A/B tetramer (P0AES4 whole entry, one chain of several): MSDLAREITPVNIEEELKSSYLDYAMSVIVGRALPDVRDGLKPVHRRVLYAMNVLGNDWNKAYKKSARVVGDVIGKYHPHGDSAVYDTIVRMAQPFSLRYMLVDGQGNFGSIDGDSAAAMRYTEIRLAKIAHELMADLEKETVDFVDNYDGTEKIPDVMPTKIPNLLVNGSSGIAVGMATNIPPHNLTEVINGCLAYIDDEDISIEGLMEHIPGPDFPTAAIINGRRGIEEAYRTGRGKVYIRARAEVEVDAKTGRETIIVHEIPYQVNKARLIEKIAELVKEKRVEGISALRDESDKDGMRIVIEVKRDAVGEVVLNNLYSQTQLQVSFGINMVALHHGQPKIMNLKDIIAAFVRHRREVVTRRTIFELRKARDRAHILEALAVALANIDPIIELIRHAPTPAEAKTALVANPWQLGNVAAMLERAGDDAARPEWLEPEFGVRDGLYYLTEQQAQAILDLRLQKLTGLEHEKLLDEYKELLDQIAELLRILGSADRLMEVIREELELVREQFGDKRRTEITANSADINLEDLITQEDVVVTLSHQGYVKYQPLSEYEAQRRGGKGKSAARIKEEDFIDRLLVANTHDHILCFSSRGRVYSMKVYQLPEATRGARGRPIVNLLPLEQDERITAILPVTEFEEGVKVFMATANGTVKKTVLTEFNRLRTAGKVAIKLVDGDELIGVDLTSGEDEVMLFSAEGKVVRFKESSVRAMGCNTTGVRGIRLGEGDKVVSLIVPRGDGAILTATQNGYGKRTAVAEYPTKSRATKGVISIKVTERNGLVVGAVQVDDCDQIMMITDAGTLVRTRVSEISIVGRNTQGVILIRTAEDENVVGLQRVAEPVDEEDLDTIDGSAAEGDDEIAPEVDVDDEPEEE

Take `C[C@@H]1CN2c3nc(F)c(C#Cc4cnccn4)cc3CC3(C(=O)NC(=O)NC3=O)[C@H]2[C@H](C)O1` (racemic) [Example 22, (6aS,7S,9R)-rel-2-Fluoro-7,9-dimethyl-3-(pyrazin-2-ylethynyl)-6a,7,9,10-tetrahydro-1′H,5H-spiro[[4]oxazino[4,3-a][1,8]naphthyridine-6,5′-pyrimidine]-2′,4′,6′(3′H)-trione]: the IC50 (usually the concentration at which inhibition is half-maximal) turned out to be 4 µM.

The compound `C[C@@H]1CN2c3ncc(-c4nccn4C)cc3CC3(C(=O)NC(=O)NC3=O)[C@H]2[C@H](C)O1` (racemic) [Example 32, (6aS,7S,9R)-rel-7,9-Dimethyl-3-(1-methyl-1H-imidazol-2-yl)-6a., 7,9,10-tetrahydro-2′H,5H-spiro[1,4-oxazino[4,3-a][1,8]naphthyridine-6,5′-pyrimidine]-2′,4′,6′(1′H,3′H)-trione] displayed a half-maximal inhibitory concentration (IC50) of 24 µM.

`Cc1cscc1-c1cnc2c(c1)CC1(C(=O)NC(=O)NC1=O)[C@H]1[C@H](C)O[C@H](C)CN21` (racemic) [Example 34, (6aS,7S,9R)-rel-7,9-Dimethyl-3-(4-methylthiophen-3-yl)-6a,7,9,10-tetrahydro-2′H,5H-spiro[1,4-oxazino[4,3-a][1,8]naphthyridine-6,5′-pyrimidine]-2′,4′,6′(1′H,3′H-trione] registered a concentration for half-maximal inhibition (IC50) of 15 µM.

The compound `C[C@@H]1CN2c3cnc(-c4cc5ccccc5o4)cc3CC3(C(=O)NC(=O)NC3=O)[C@H]2[C@H](C)O1` (racemic) [Example 53, (6aS,7S,9R)-rel-3-(1-Benzofuran-2-yl)-7,9-dimethyl-6a,7,9,10-tetrahydro-2′H,5H-spiro[1,4-oxazino[4,3-a][1,7]napthyridine-6,5′-pyrimidine]2′,4′,6′(1′H,3′H)-trione] showed an IC50 of 16 µM.

Take `C[C@@H]1CN2c3cnc(-c4ccco4)cc3CC3(C(=O)NC(=O)NC3=O)[C@H]2[C@H](C)O1` (racemic) [Example 54, (6aS,7S,9R)-rel-3-(Furan-2-yl)-7,9-dimethyl-6a,7,9,10-tetrahydro-2′H,5H-spiro[1,4-oxazino[4,3-a][1,7]naphthyridine-6,5′-pyrimidine]-2′,4′,6′(1′H3″H)-trione]: the IC50 is greater than 83 µM.

`COc1ccncc1-c1cc2c(cn1)N1C[C@@H](C)O[C@@H](C)[C@@H]1C1(C2)C(=O)NC(=O)NC1=O` (racemic) [Example 58, (6aS,7S,9R)-rel-3-(4-Methoxypyridin-3-yl)-7,9-dimethyl-6a,7,9,10-tetrahydro-2′H,5H-spiro[1,4-oxazino[4,3-a][1,7]naphthyridine-6,5′-pyrimidine]-2′,4′,6′(1″H3″H)-trione] registered an IC50 greater than 83 µM.

The compound `C[C@@H]1CN2c3cnc(-c4cccnc4)cc3CC3(C(=O)NC(=O)NC3=O)[C@H]2[C@H](C)O1` (racemic) [Example 61, (6aS,7S,9R)-rel-7,9-Dimethyl-3-pyridin-3-yl)-6a,7,9,10-tetrahydro-2′H,5H-spiro[1,4-oxazino[4,3-a][1,7]naphthyridine-6,5′-pyrimidine]-2′,4′,6′(1′H,3′H)-trione] had an IC50 of 18 µM. This lies in the double-digit micromolar range.

`C[C@@H]1CN2c3ccc(-c4ccccn4)nc3CC3(C(=O)NC(=O)NC3=O)[C@H]2[C@H](C)O1` (racemic) [Example 69, (2R,4S,4aS)-rel-2,4-Dimethyl-8-(pyridin-2-yl)-1,2,4,4a-tetrahydro-2′H,6H-spiro[1,4-oxazino[4,3-a][1,5]naphthyridine-5,5′-pyrimidine]-2′,4′,6′(1′H3″H)-trione] returned a concentration for half-maximal inhibition (IC50) of 29 µM.

As to `C[C@@H]1CN2c3cnc(-c4nccs4)cc3CC3(C(=O)NC(=O)NC3=O)[C@H]2[C@H](C)O1` (racemic) [Example 86, (6aS,7S,9R)-rel-7,9-Dimethyl-3-(1,3-thiazol-2-yl)-6a., 7,9,10-tetrahydro-2′H,5H-spiro[1,4-oxazino[4,3-a][1,7]naphthyridine-6,5′-pyrimidine]-2′,4′,6′(1′H,3′H)-trione], the midpoint of inhibition, the IC50, lay at 61 µM.

The compound `COc1nc2c(cc1-c1nnc(C)s1)CC1(C(=O)NC(=O)NC1=O)[C@H]1[C@H](C)O[C@H](C)CN21` (racemic) [Example 119, (6aS,7S,9R)-rel-2-Methoxy-7,9-dimethyl-3-(5-methyl-1,3,4-thiadiazol-2-yl)-6a,7,9,10-tetrahydro-1′H,5H-spiro[[1,4]oxazino[4,3-a][1,8]naphthyridine-6,5′-pyrimidine]-2′., 4′,6′(3′H)-trione] yielded a 50% inhibitory concentration (IC50) of 21 µM.

The compound `C[C@@H]1CN2c3ncc(-c4nncs4)cc3CC3(C(=O)NC(=O)NC3=O)[C@H]2[C@H](C)O1` (relative stereo) [Example 1, (6aS,7S,9R)-rel-7,9-Dimethyl-3-(1,3,4-thiadiazol-2-yl)-6a,7,9,10-tetrahydro-2′H,5H-spiro[1,4-oxazino[4,3-a][1,8]naphthyridine-6,5′-pyrimidine]-2′,4′,6′(1′H,3′H)-trione] had an IC50 of 7 µM.

As for `C[C@@H]1CN2c3cnc(Br)cc3CC3(C(=O)NC(=O)NC3=O)[C@H]2[C@H](C)O1` (relative stereo) [Example 3, (6aS,7S,9R)-rel-3-Bromo-7,9-dimethyl-6a,7,9,10-tetrahydro-1′H,5H-spiro[[1,4]oxazino[4,3-a][1,7]naphthyridine-6,5′-pyrimidine]-2′,4′,6′(3′H)-trione], the concentration for half-maximal inhibition (IC50) is 11 µM.

Regarding `C[C@@H]1CN2c3cncc(F)c3CC3(C(=O)NC(=O)NC3=O)[C@H]2[C@H](C)O1` (relative stereo) [Example 6, (6aS,7S,9R)-rel-4-Fluoro-7,9-dimethyl-6a,7,9,10-tetrahydro-1′H,5H-spiro[[1,4]oxazino[4,3-a][1,7]naphthyridine-6,5′-pyrimidine]-2′,4′,6′(3′H)-trione], the half-inhibitory concentration (IC50) is greater than 83 µM.

`C[C@@H]1CN2c3ncc(Br)cc3CC3(C(=O)NC(=O)NC3=O)[C@H]2[C@H](C)O1` (relative stereo) [Example 9, (6aS,7S,9R)-rel-3-Bromo-7,9-dimethyl-6a,7,9,10-tetrahydro-1′H,5H-spiro[[1,4]oxazino[4,3-a][1,8]naphthyridine-6,5′-pyrimidine]-2′,4′,6′(3′H)-trione] showed an IC50 of 3 µM.

Consider `C[C@@H]1CN2c3c(ccnc3Cl)CC3(C(=O)NC(=O)NC3=O)[C@H]2[C@H](C)O1` (relative stereo) [Example 12, (6aS,7S,9R)-rel-1-chloro-7,9-dimethyl-6a,7,9,10-tetrahydro-1′H,5H-spiro[[1,4]oxazino[4,3-a][1,7]naphthyridine-6,5′-pyrimidine]-2′,4′,6′(3′H)-trione], for which the half-maximal inhibitory concentration (IC50) was found to be 21 µM.

Consider `C[C@@H]1CN2c3nc(F)c(I)cc3CC3(C(=O)NC(=O)NC3=O)[C@H]2C(=O)N1` (relative stereo) [Example 14, (6aS,9R)-rel-2-Fluoro-3-iodo-9-methyl-9,10-dihydro-1′H-spiro[pyrazino[1,2-a][1,8]naphthyridine-6,5′-pyrimidine]-2′,4′,6′,7(3′H,5H,6aH,8H)-tetraone], for which the IC50 is 11 µM. This IC50 is about 1.9-fold lower than that of the compound before.

Compound `Cc1nnc(-c2cc3c(nc2F)N2C[C@@H](C)O[C@@H](C)[C@@H]2C2(C3)C(=O)NC(=O)NC2=O)s1` (relative stereo) [Example 16, (6aS,7S,9R)-rel-2-Fluoro-7,9-dimethyl-3-(5-methyl-1,3,4-thiadiazol-2-yl)-6a,7,9,10-tetrahydro-1′H,5H-spiro[[1,4]oxazino[4,3-a][1,8]naphthyridine-6,5′-pyrimidine]-2′,4′,6′(3′H)-trione] yielded an IC50 of 7 µM.

The compound `C[C@@H]1CN2c3nc(F)ccc3CC3(C(=O)NC(=O)NC3=O)[C@H]2[C@H](C)O1` (relative stereo) [Example 20, (6aS,7S,9R)-rel-2-Fluoro-7,9-dimethyl-6a,7,9,10-tetrahydro-1′H,5H-spiro[[1,4]oxazino[4,3-a][1,8]naphthyridine-6,5′-pyrimidine]-2′,4′,6′(3′H)-trione] showed a half-maximal inhibitory concentration (IC50) of 25 µM.

`C[C@@H]1CN2c3nc(F)c(C#Cc4ccccn4)cc3CC3(C(=O)NC(=O)NC3=O)[C@H]2[C@H](C)O1` (relative stereo) [Example 21, (6aS,7S,9R)-rel-2-fluoro-7,9-dimethyl-3-(pyridin-2-ylethynyl)-6a,7,9,10-tetrahydro-1′H,5H-spiro[[1,4]oxazino[4,3-a][1,8]naphthyridine-6,5′-pyrimidine]-2′,4′,6′(3′H)-trione] returned an IC50 of 10 µM.

The compound `COc1ccc(C#Cc2cc3c(nc2F)N2C[C@@H](C)O[C@@H](C)[C@@H]2C2(C3)C(=O)NC(=O)NC2=O)cc1` (relative stereo) [Example 23, (6aS,7S,9R)-rel-2-Fluoro-3-((4-methoxyphenyl)ethynyl)-7,9-dimethyl-6a,7,9,10-tetrahydro-1′H,5H-spiro[[1,4]oxazino[4,3-a][1,8]naphthyridine-6,5′-pyrimidine]-2′,4′,6′(3′H)-trione] gave an IC50 of 6 µM.

`Cc1nnc(-c2cnc3c(c2)CC2(C(=O)NC(=O)NC2=O)[C@H]2[C@H](C)O[C@H](C)CN32)s1` (relative stereo) [Example 24, (6aS,7S,9R)-rel-7,9-Dimethyl-3-(5-methyl-1,3,4-thiadiazol-2-yl)-6a,7,9,10-tetrahydro-2′H,5H-spiro[1,4-oxazino[4,3-a][1,8]naphthyridine-6,5′-pyrimidine]-2′,4′,6′(1′H,3′H)-trione] had an IC50 greater than 5 µM.

On to `C[C@@H]1CN2c3ncc(-c4cncs4)cc3CC3(C(=O)NC(=O)NC3=O)[C@H]2[C@H](C)O1` (relative stereo) [Example 26, (6aS,7S,9R)-rel-7,9-Dimethyl-3-(1,3-thiazol-5-yl)-6a,7,9,10-tetrahydro-2′H,5H-spiro[1,4-oxazino[4,3-a][1,8]naphthyridine-6,5′-pyrimidine]-2′,4′,6′(1′H,3′H)-trione], for which the midpoint of inhibition, the IC50, lay at 4 µM.
